{"source": "PubChem BioAssay AID1259407", "about": "(Chemical Carcinogenesis Research Information System (CCRIS), 2018)", "tested_on": "CCRIS mutagenicity, Ames/micronucleus/aberration tests", "assay": "CCRIS mutagenicity studies", "key": {"[1]": {"conditions": "Test System: AMES SALMONELLA TYPHIMURIUM, Strain/Indicator: TA98, Metabolic Activation: NONE, Method: PREINCUBATION"}, "[2]": {"conditions": "Test System: AMES SALMONELLA TYPHIMURIUM, Strain/Indicator: TA100, Metabolic Activation: NONE, Method: PREINCUBATION"}, "[3]": {"conditions": "Test System: AMES SALMONELLA TYPHIMURIUM, Strain/Indicator: TA100, Metabolic Activation: RAT, LIVER, S-9, AROCLOR 1254, Method: STANDARD PLATE"}}, "note": "Active and inactive are the calls of the source. How the calls were made is not given here."}
{"smiles": "CC(=O)Nc1ccccc1", "values": [{"measurement": "mutagenic call", "setting": "Test System: AMES SALMONELLA TYPHIMURIUM, Strain/Indicator: TA97, Metabolic Activation: HAMSTER, LIVER, S-9, AROCLOR 1254 (10 OR 30%), Method: PREINCUBATION", "value": "inactive; negative"}, {"measurement": "mutagenic call", "setting": "Test System: AMES SALMONELLA TYPHIMURIUM, Strain/Indicator: TA97, Metabolic Activation: NONE, Method: PREINCUBATION", "value": "inactive; negative"}, {"measurement": "mutagenic call", "setting": "Test System: AMES SALMONELLA TYPHIMURIUM, Strain/Indicator: TA97, Metabolic Activation: RAT, LIVER, S-9, AROCLOR 1254 (10 OR 30%), Method: PREINCUBATION", "value": "inactive; negative"}, {"measurement": "mutagenic call", "setting": "Test System: AMES SALMONELLA TYPHIMURIUM, Strain/Indicator: TA98, Metabolic Activation: GUINEA PIG, LIVER, S-9, PCB, Method: PREINCUBATION", "value": "inactive; negative"}, {"measurement": "mutagenic call", "setting": "Test System: AMES SALMONELLA TYPHIMURIUM, Strain/Indicator: TA98, Metabolic Activation: HAMSTER, LIVER, S-9, AROCLOR 1254 (10 OR 30%), Method: PREINCUBATION", "value": "inactive; negative"}, {"measurement": "mutagenic call", "setting": "Test System: AMES SALMONELLA TYPHIMURIUM, Strain/Indicator: TA98, Metabolic Activation: HAMSTER, LIVER, S-9, PCB, Method: PREINCUBATION", "value": "inactive; negative"}, {"measurement": "mutagenic call", "setting": "Test System: AMES SALMONELLA TYPHIMURIUM, Strain/Indicator: TA98, Metabolic Activation: MOUSE, LIVER, S-9, PCB, Method: PREINCUBATION", "value": "inactive; negative"}, {"measurement": "mutagenic call", "setting": "[1]", "value": "inactive; negative"}, {"measurement": "mutagenic call", "setting": "Test System: AMES SALMONELLA TYPHIMURIUM, Strain/Indicator: TA98, Metabolic Activation: RAT, LIVER, S-9, AROCLOR 1254 (10 OR 30%), Method: PREINCUBATION", "value": "inactive; negative"}, {"measurement": "mutagenic call", "setting": "Test System: AMES SALMONELLA TYPHIMURIUM, Strain/Indicator: TA98, Metabolic Activation: RAT, LIVER, S-9, PCB, Method: PREINCUBATION", "value": "inactive; negative"}, {"measurement": "mutagenic call", "setting": "Test System: AMES SALMONELLA TYPHIMURIUM, Strain/Indicator: TA100, Metabolic Activation: GUINEA PIG, LIVER, S-9, PCB, Method: PREINCUBATION", "value": "inactive; negative"}, {"measurement": "mutagenic call", "setting": "Test System: AMES SALMONELLA TYPHIMURIUM, Strain/Indicator: TA100, Metabolic Activation: HAMSTER, LIVER, S-9, AROCLOR 1254 (10 OR 30%), Method: PREINCUBATION", "value": "inactive; negative"}, {"measurement": "mutagenic call", "setting": "Test System: AMES SALMONELLA TYPHIMURIUM, Strain/Indicator: TA100, Metabolic Activation: HAMSTER, LIVER, S-9, PCB, Method: PREINCUBATION", "value": "inactive; negative"}, {"measurement": "mutagenic call", "setting": "Test System: AMES SALMONELLA TYPHIMURIUM, Strain/Indicator: TA100, Metabolic Activation: MOUSE, LIVER, S-9, PCB, Method: PREINCUBATION", "value": "inactive; negative"}, {"measurement": "mutagenic call", "setting": "[2]", "value": "inactive; negative"}, {"measurement": "mutagenic call", "setting": "Test System: AMES SALMONELLA TYPHIMURIUM, Strain/Indicator: TA100, Metabolic Activation: RAT, LIVER, S-9, AROCLOR 1254 (10 OR 30%), Method: PREINCUBATION", "value": "inactive; negative"}, {"measurement": "mutagenic call", "setting": "Test System: AMES SALMONELLA TYPHIMURIUM, Strain/Indicator: TA100, Metabolic Activation: RAT, LIVER, S-9, PCB, Method: PREINCUBATION", "value": "inactive; negative"}, {"measurement": "mutagenic call", "setting": "Test System: AMES SALMONELLA TYPHIMURIUM, Strain/Indicator: TA1535, Metabolic Activation: HAMSTER, LIVER, S-9, AROCLOR 1254 (10 OR 30%), Method: PREINCUBATION", "value": "inactive; negative"}, {"measurement": "mutagenic call", "setting": "Test System: AMES SALMONELLA TYPHIMURIUM, Strain/Indicator: TA1535, Metabolic Activation: NONE, Method: PREINCUBATION", "value": "inactive; negative"}, {"measurement": "mutagenic call", "setting": "Test System: AMES SALMONELLA TYPHIMURIUM, Strain/Indicator: TA1535, Metabolic Activation: RAT, LIVER, S-9, AROCLOR 1254 (10 OR 30%), Method: PREINCUBATION", "value": "inactive; negative"}]}
{"smiles": "C[C@@H]1CC2c3cccc4c3c(cn4C3CCCC3)C[C@H]2N(C)C1", "note": "(stereo partly specified)", "values": [{"measurement": "mutagenic call", "setting": "[3]", "value": "active; positive"}]}
{"smiles": "Fc1cnc2c(ccc3ccccc32)c1", "values": [{"measurement": "mutagenic call", "setting": "Test System: AMES SALMONELLA TYPHIMURIUM, Strain/Indicator: TA100, Metabolic Activation: RAT, LIVER, S-9, PHENOBARBITAL AND 5,6-BENZOFLAVONE, Method: PREINCUBATION", "value": "inactive; negative"}]}
{"smiles": "Cc1cccc2c1c([N+](=O)[O-])cc[n+]2[O-]", "values": [{"measurement": "mutagenic call", "setting": "Test System: UDS RODENT PRIMARY CELLS, Strain/Indicator: THY INCORP (NON-S-PHASE), Metabolic Activation: NONE, Method: AUTORADIOGRAPHY", "value": "active; positive"}]}
{"smiles": "c1ccc2nccnc2c1", "values": [{"measurement": "mutagenic call", "setting": "Test System: AMES SALMONELLA TYPHIMURIUM, Strain/Indicator: TA98, Metabolic Activation: HAMSTER, LIVER, S-9, AROCLOR 1254, Method: STANDARD PLATE", "value": "inactive; negative"}, {"measurement": "mutagenic call", "setting": "[1]", "value": "inactive; negative"}, {"measurement": "mutagenic call", "setting": "Test System: AMES SALMONELLA TYPHIMURIUM, Strain/Indicator: TA98, Metabolic Activation: NONE, Method: STANDARD PLATE", "value": "inactive; negative"}, {"measurement": "mutagenic call", "setting": "Test System: AMES SALMONELLA TYPHIMURIUM, Strain/Indicator: TA98, Metabolic Activation: RAT, LIVER, S-9, AROCLOR 1254, Method: PREINCUBATION", "value": "active; positive"}, {"measurement": "mutagenic call", "setting": "Test System: AMES SALMONELLA TYPHIMURIUM, Strain/Indicator: TA98, Metabolic Activation: RAT, LIVER, S-9, AROCLOR 1254, Method: STANDARD PLATE", "value": "inactive; negative"}, {"measurement": "mutagenic call", "setting": "Test System: AMES SALMONELLA TYPHIMURIUM, Strain/Indicator: TA100, Metabolic Activation: HAMSTER, LIVER, S-9, AROCLOR 1254, Method: STANDARD PLATE", "value": "inactive; negative"}, {"measurement": "mutagenic call", "setting": "[2]", "value": "inactive; negative"}, {"measurement": "mutagenic call", "setting": "Test System: AMES SALMONELLA TYPHIMURIUM, Strain/Indicator: TA100, Metabolic Activation: NONE, Method: STANDARD PLATE", "value": "inactive; negative"}, {"measurement": "mutagenic call", "setting": "Test System: AMES SALMONELLA TYPHIMURIUM, Strain/Indicator: TA100, Metabolic Activation: RAT, LIVER, S-9, AROCLOR 1254, Method: PREINCUBATION", "value": "inactive; negative"}, {"measurement": "mutagenic call", "setting": "[3]", "value": "inactive; negative"}, {"measurement": "mutagenic call", "setting": "Test System: AMES SALMONELLA TYPHIMURIUM, Strain/Indicator: TA102, Metabolic Activation: NONE, Method: PREINCUBATION", "value": "inactive; negative"}, {"measurement": "mutagenic call", "setting": "Test System: AMES SALMONELLA TYPHIMURIUM, Strain/Indicator: TA102, Metabolic Activation: RAT, LIVER, S-9, AROCLOR 1254, Method: PREINCUBATION", "value": "inactive; negative"}, {"measurement": "mutagenic call", "setting": "Test System: AMES SALMONELLA TYPHIMURIUM, Strain/Indicator: TA1535, Metabolic Activation: HAMSTER, LIVER, S-9, AROCLOR 1254, Method: STANDARD PLATE", "value": "inactive; negative"}, {"measurement": "mutagenic call", "setting": "Test System: AMES SALMONELLA TYPHIMURIUM, Strain/Indicator: TA1535, Metabolic Activation: NONE, Method: STANDARD PLATE", "value": "inactive; negative"}, {"measurement": "mutagenic call", "setting": "Test System: AMES SALMONELLA TYPHIMURIUM, Strain/Indicator: TA1535, Metabolic Activation: RAT, LIVER, S-9, AROCLOR 1254, Method: STANDARD PLATE", "value": "inactive; negative"}, {"measurement": "mutagenic call", "setting": "Test System: AMES SALMONELLA TYPHIMURIUM, Strain/Indicator: TA1537, Metabolic Activation: HAMSTER, LIVER, S-9, AROCLOR 1254, Method: STANDARD PLATE", "value": "inactive; negative"}, {"measurement": "mutagenic call", "setting": "Test System: AMES SALMONELLA TYPHIMURIUM, Strain/Indicator: TA1537, Metabolic Activation: NONE, Method: STANDARD PLATE", "value": "inactive; negative"}, {"measurement": "mutagenic call", "setting": "Test System: AMES SALMONELLA TYPHIMURIUM, Strain/Indicator: TA1537, Metabolic Activation: RAT, LIVER, S-9, AROCLOR 1254, Method: STANDARD PLATE", "value": "inactive; negative"}, {"measurement": "mutagenic call", "setting": "Test System: AMES SALMONELLA TYPHIMURIUM, Strain/Indicator: TA1538, Metabolic Activation: HAMSTER, LIVER, S-9, AROCLOR 1254, Method: STANDARD PLATE", "value": "inactive; negative"}, {"measurement": "mutagenic call", "setting": "Test System: AMES SALMONELLA TYPHIMURIUM, Strain/Indicator: TA1538, Metabolic Activation: NONE, Method: STANDARD PLATE", "value": "inactive; negative"}, {"measurement": "mutagenic call", "setting": "Test System: AMES SALMONELLA TYPHIMURIUM, Strain/Indicator: TA1538, Metabolic Activation: RAT, LIVER, S-9, AROCLOR 1254, Method: STANDARD PLATE", "value": "inactive; negative"}, {"measurement": "mutagenic call", "setting": "Test System: Mouse lymphoma, Strain/Indicator: L5178Y (tk+/tk-), Metabolic Activation: None, Method: Suspension/plate", "value": "inactive; negative"}, {"measurement": "mutagenic call", "setting": "Test System: Mouse lymphoma, Strain/Indicator: L5178Y (tk+/tk-), Metabolic Activation: Rat, Liver, S-9, Aroclor 1254, Method: Suspension/plate", "value": "active; positive"}]}
